Each molecule was assayed on P. falciparum 3D7 growth, pLDH absorbance (assay: blood-stage malaria parasite growth potency – strain 3D7, dose response (AID 2305)).

SMILES	IC50 [µM]
COc1ccc(-c2nc3cccnc3n2CC(=O)Nc2cc(Cl)c(Cl)cc2Cl)c(OC)c1	0.72
CC(C)(C)c1ccc(CN2CCC(CNC(=O)c3cc(-c4cccc(C(F)(F)F)c4)cs3)C2)cc1 (centres undefined)	1.03
CN(CC(=O)Nc1ccc(F)cc1)C(=O)c1ccc(-c2ccc(F)cc2)o1	0.93
CCc1nonc1NC(=O)c1oc2c(C)c(C)ccc2c1C	0.88
CC(=O)Oc1cc(C)ccc1C1CCN(CCCCNC(=O)c2ccc(-c3ccc(C(F)(F)F)cc3)cc2)CC1	0.65
COc1cccc2cc(C(=O)N[C@@H](CC(C)C)C(=O)N[C@H](/C=N/N3CCOC3=O)Cc3ccccc3)oc12	0.69
NC1=NC2(CCCCC2)N(OCCCCCCC2CCCCC2)C(N)=N1	0.36
O=C(/C=C/c1ccc(Cl)c(Cl)c1)N1CCC(CN2CCC(c3c[nH]c4ccc(O)cc34)CC2)CC1	0.78
Cc1ccn2cc(-c3ccc(NC(=O)c4ccc(Br)o4)cc3)nc2c1	0.74
CC1CCN(Cc2ccc(NC(=O)c3cc4ccc5cccnc5c4[nH]3)cc2)CC1	0.78
CCOC(=O)c1ccc(NC(=O)N[C@@H](Cc2ccccc2)C(=O)NC2CCN(Cc3ccc(OCCCN(C)C)cc3)C2)cc1 (some centres undefined)	0.7
OC(CNCc1ccccc1OCc1ccccc1)c1cccc(C(F)(F)F)c1 (centres undefined)	0.36
O=C(/C=C/c1ccc(Cl)c(Cl)c1)N1CCC(CN2CCC(c3nc4ccccc4n3CCCO)CC2)CC1	0.84
Cc1[nH]c(C)c(-c2ccc(-c3ccc(OC(F)(F)F)cc3)nc2)c(=O)c1Br	0.25
Cc1ccc(NC(=O)NC2CCN(c3ccnc4cc(Cl)ccc34)C2)cc1 (centres undefined)	0.15
COc1ccc(-c2ccc(CNCc3ccc(F)cc3)cc2)cc1S(=O)(=O)NCCN1CCCC1	0.73
Cc1cc(NCCC(=O)Nc2ccccc2)nc(NCCc2ccccc2)n1	0.85
CC(C)Cn1cc(C2CCN(CCN3CCC(CNC(=O)c4ccc(-c5ccc(C(F)(F)F)cc5)cc4)CC3)CC2)c2ccccc21	0.75
CN(Cc1ccccc1)C(=O)CCNS(=O)(=O)c1cc(Br)cnc1N	1.13
N#Cc1ccc2c(c1)CCN(CCC1CCC(NC(=O)Nc3ccnc4ccccc34)CC1)C2 (centres undefined)	0.38
CC1CN(c2ccc(NC(=O)c3ccc(F)cc3)cc2)CCN1Cc1cccc(F)c1 (centres undefined)	1.35
Cc1nc(Nc2ccc(F)cc2)nc(N2CCc3ccccc3C2C)c1CO (centres undefined)	0.74
Cc1cc(F)ccc1Nc1nc(N(C)c2ccccc2)c2cccc(OCCO)c2n1	0.8
O=C(NC1CC1)c1ccc(Cn2c(SCc3cccc([N+](=O)[O-])c3)nc3ccccc3c2=O)cc1	0.76
COc1ccccc1-c1ccc2nnc(SCC(=O)Nc3ccc4c(c3)OCCO4)n2n1	0.72

SMILES	IC50 [µM]
CNC(=O)c1ccc2nc(-c3ccc(-c4ccccc4)cc3)n(CC3CCN(CC4CCCC4)CC3)c2c1	0.04
Cn1c(=O)c2nc(-c3ccc(Cl)cc3)nnc2n(CCCC#N)c1=O	0.15
CC(C)CCN1CCC(Oc2ccc(NC(=O)c3ccc4ncccc4c3)cc2Cl)C1 (centres undefined)	0.97
O=C(Nc1ccccc1)Nc1cccc(-c2cc(CNCCc3ccccc3)sc2-c2ccncc2)c1	0.6
C=CCOC(=O)O[C@@H]1[C@@H](OC(=O)OCC=C)[C@@H](OC)O[C@H](COC(c2ccccc2)(c2ccccc2)c2ccccc2)[C@H]1OC(=O)OCC=C	0.89
CCC(C)c1cccc(C(C)CC)c1OCCCON1C(N)=NC(N)=NC1(C)C (centres undefined)	0.02
COc1cc2nc(NCc3ccccc3)nc(NCc3ccccc3)c2cc1OC	0.15
CCOC(=O)c1ccc(NC(=O)Nc2cccc(-c3cccc(-c4nc5ccc(F)cc5[nH]4)c3)c2)cc1	0.09
Cc1cc(OCCCN2CCC(NS(=O)(=O)c3ccc(Cl)c(Cl)c3)C2)c2ccccc2n1 (centres undefined)	1.05
Cn1c(=N)n(CC(=O)N2CCc3ccc(Cl)cc3C2Cc2ccc(Cl)c(Cl)c2)c2ccccc21 (centres undefined)	0.87
CN(C)c1ccc(-c2cscc2C(=O)NC2CCCN(Cc3cccnc3)C2)cc1 (centres undefined)	0.86
Cc1noc(C)c1-c1ccc2c(Nc3ccccc3C(C)(C)C)c(C(=O)NCc3ccc(OC(C)C)cc3)cnc2c1	0.91
CN(C)CCNC(=O)c1cc2c(-c3ccc(Cl)cc3)nn(C)c2s1	0.67
COc1ccc(Nc2c3ccc(Cl)cc3nc3ccc(OC)cc23)cc1	0.44
Cc1cc(NN=Cc2ccccc2[N+](=O)[O-])c2cc(F)ccc2n1	0.66
COc1ccc(NC(=O)/C=C/c2ccccc2Cl)cc1OCCN1CCC(N2CCCCC2)CC1	0.9
CC(C)C(=O)NC(c1ccc(Cl)cc1)c1ccc2cccnc2c1O (centres undefined)	0.87
O=C(Nc1cccc2ccccc12)N1CCc2cc3nccc(N4CCN5CCC[C@H]5C4)c3cc21	0.89
Cc1ccc(CCNCC(O)c2cccc(C(F)(F)F)c2)cc1 (centres undefined)	0.87
O=C(NCCNc1ccnc(NCc2ccc(F)cc2)n1)c1cc2ccccc2s1	0.7
Cc1cccc2[nH]c(-c3cccc(-c4ccc(NC(=O)C(C)C(=O)NC(C)C)cc4)c3)nc12 (centres undefined)	1
COc1ccc2nccc(N3CCC(O)(CCNCc4ccc5c(n4)NC(=O)CO5)CC3)c2n1	0.82
CCC[C@@H]([C@@H](CC(C)C)C(=O)N[C@@H](CCCNc1nccc(C(F)(F)F)n1)C(=O)Nc1nccs1)N(O)C=O	0.37
Cc1[nH]nc2cc(Nc3ccnc(Nc4cccc(CN5CCOCC5)c4)n3)ccc12	1.58
